According to ChEMBL document CHEMBL1145218, “QSAR study on pK(a) vis-à-vis physiological activity of sulfonamides: a dominating role of surface tension (inverse steric parameter)” (Bioorg Med Chem Lett, 2005):

Assay: pKa value
Format: physicochemical

| Structure (SMILES) | pKa |
| --- | --- |
| O=S(=O)(Nc1ccccc1)c1ccc(Br)cc1 | 8.5 |
| O=S(=O)(Nc1ccccc1)c1cccc(Br)c1 | 8.25 |
| O=S(=O)(Nc1ccc(F)cc1)c1ccc(Br)cc1 | 8.38 |
| O=S(=O)(Nc1ccccc1)c1ccc(Cl)cc1 | 8.47 |
| Cc1ccc(NS(=O)(=O)c2ccc(Cl)cc2)cc1 | 8.78 |
| O=S(=O)(Nc1ccccc1)c1ccc(F)cc1 | 8.9 |
| COc1ccc(S(=O)(=O)Nc2cccc([N+](=O)[O-])c2)cc1 | 8.44 |
| Nc1ccc(NS(=O)(=O)c2ccccc2)cc1 | 10.3 |
| Cc1ccc(S(=O)(=O)Nc2ccc(Cl)cc2)cc1 | 9.02 |
| Cc1ccc(NS(=O)(=O)c2ccc(C)cc2)cc1 | 9.65 |
| COc1ccc(S(=O)(=O)Nc2ccccc2)cc1 | 9.42 |
| Cc1ccc(NS(=O)(=O)c2ccc(F)cc2)cc1 | 9.23 |
| Cc1ccc(S(=O)(=O)Nc2ccc(F)cc2)cc1 | 9.2 |
| Cc1ccc(S(=O)(=O)Nc2ccccc2)cc1 | 9.35 |
| COc1ccc(S(=O)(=O)Nc2ccc(Cl)cc2)cc1 | 9.19 |
| O=S(=O)(Nc1ccc(F)cc1)c1ccc(F)cc1 | 8.73 |
| COc1ccc(S(=O)(=O)Nc2ccc(C)cc2)cc1 | 9.8 |
| O=[N+]([O-])c1ccc(S(=O)(=O)Nc2ccc(F)cc2)cc1 | 6.45 |
| Cc1ccc(NS(=O)(=O)c2ccc([N+](=O)[O-])cc2)cc1 | 6.78 |
| Cc1ccc(NS(=O)(=O)c2ccccc2)cc1 | 9.34 |
| O=[N+]([O-])c1ccc(S(=O)(=O)Nc2cccc([N+](=O)[O-])c2)cc1 | 5.51 |
| Cc1cccc(S(=O)(=O)Nc2ccc(N)cc2)c1 | 10.4 |
| Cc1ccc(S(=O)(=O)Nc2ccc(N)cc2)cc1 | 10.5 |
| COc1ccc(S(=O)(=O)Nc2ccc(F)cc2)cc1 | 9.32 |
| O=S(=O)(Nc1ccc(F)cc1)c1ccccc1 | 8.85 |
| O=[N+]([O-])c1cccc(NS(=O)(=O)c2ccccc2)c1 | 7.93 |
| O=S(=O)(Nc1ccccc1)c1ccccc1 [PHENYL(PHENYLSULFONYL)AMINE] | 9.1 |

The next lines start with the values.

| pKa | Structure (SMILES) |
| --- | --- |
| 7.8 | Cc1ccc(NS(=O)(=O)c2cccc([N+](=O)[O-])c2)cc1 |
| 8.27 | Cc1ccc(S(=O)(=O)Nc2cccc([N+](=O)[O-])c2)cc1 |
| 8.75 | O=S(=O)(Nc1ccc(Cl)cc1)c1ccccc1 |
| 7.51 | O=[N+]([O-])c1cccc(NS(=O)(=O)c2ccc(Cl)cc2)c1 |
| 7.85 | O=[N+]([O-])c1cccc(NS(=O)(=O)c2ccc(F)cc2)c1 |
| 6.24 | O=[N+]([O-])c1ccc(S(=O)(=O)Nc2ccc(Cl)cc2)cc1 |
| 8.3 | O=S(=O)(Nc1ccc(Cl)cc1)c1ccc(Cl)cc1 |
| 8.61 | O=S(=O)(Nc1ccc(Cl)cc1)c1ccc(F)cc1 |
| 9.76 | Nc1ccc(NS(=O)(=O)c2ccc(Cl)cc2)cc1 |
| 7.27 | O=[N+]([O-])c1cccc(S(=O)(=O)Nc2ccc(F)cc2)c1 |
| 8.41 | O=S(=O)(Nc1ccc(F)cc1)c1ccc(Cl)cc1 |
| 7.5 | O=[N+]([O-])c1cccc(S(=O)(=O)Nc2ccccc2)c1 |
| 8.24 | O=S(=O)(Nc1ccc(Cl)cc1)c1ccc(Br)cc1 |
| 7.42 | O=[N+]([O-])c1cccc(NS(=O)(=O)c2ccc(Br)cc2)c1 |
| 7.19 | O=[N+]([O-])c1cccc(S(=O)(=O)Nc2ccc(Cl)cc2)c1 |
